Results reported in patent US20250304549A1, “HYDROXYAMIDE DERIVATIVE AND USE THEREOF” (SICHUAN HUIYU PHARMACEUTICAL CO., LTD., priority 2022, published 2025).
Structures can show the parent of a compound that is named as a salt.

Key:
[1] = target: LSD1 (Homo sapiens (Human), UniProt O60341); experiment: In vitro enzyme inhibition assay - LSD1 (HTRF); type: biochemical
Description: 1. In Vitro Enzyme Inhibition Assay—LSD1
Initially, a master solution of 90 μM test compound (dissolved in DMSO) was prepared and sequentially diluted with DMSO in a 5-fold concentration gradient to yield a total of 9 concentrations of the compound working solution 1 (90×). Subsequently these 9 concentrations of working solution 1 were sequentially diluted by a 30-fold concentration gradient, i.e., 2 μL of working solution 1 was aspirated and added to 58 μL of Buffer, mixed on a vortex mixer with sufficient shaking to yield 9 concentrations of the screening test compound working solution 2 (3×). […] The mixture was incubated at room temperature for 15 minutes. […] Afterward, 2 μL of a termination solution (containing 5.4 mM 2-PCPA) was added to each well, mixed evenly, and incubated for another 15 minutes. Finally 4 μL of a pre-mixed antibody solution of Eu-anti H3K4 (PerkinElmer, TRF0404-D) and allophycocyanin (Prozyme, PJ27S) (1:1) was added to each well, mixed evenly, and incubated for 60 minutes. […] The inhibition rate was calculated through the following formula: […]
(§1) Note: ‘Negative’ refers to the group without the inhibitor; ‘Blank’ refers to the group without the enzyme.
(§2) The IC50 value was calculated by fitting the inhibition rate by GraphPad Prism software, employing log (inhibitor) vs. response-Variable Slope (four parameters) model.

[2] = target: pan-HDAC; experiment: In vitro enzyme inhibition assay - HDAC (HDAC-Glo I/II), pan-HDAC; type: biochemical
Description: 2. In Vitro Enzyme Inhibition Assay—HDAC
The effect of the compound on the enzymatic activity of pan-HDAC and two isoforms (HDAC1 and HDAC8) was examined using the HDAC-Glo I/II Assay and Screening System assay to assess the level of inhibition of HDAC protease activity and selectivity in each isoform. The proteins and detection reagents were from the HDAC-Glo™ I/II Assay and Screening System (Promega). A 1 mM stock solution of the compound was prepared in DMSO and diluted in a 5-fold gradient to create a series of 8 concentrations, and a specific volume of the highest concentration was diluted 25 times with HDAC Buffer to obtain 4× working solution of the compound. […] The 384-well plate was then read on a multifunctional microplate reader, with the Luminescence channel selected to record Luminescence values (RLU). The inhibition rate was calculated using the following formula: […]
as §1, §2

[3] = test system: NCI-H1417 cells; experiment: In vitro cell inhibition assay - H1417 cell proliferation (CellTiter-Glo); type: cell-based; details: Homo sapiens, NCI-H1417, H1417 small cell lung cancer cell proliferation
Description: 3. In Vitro Cell Inhibition Assay—H1417 Cell Proliferation
The inhibitory effect of the compounds on cell proliferation was assessed by detecting the number of viable cells using the CellTiter-Glo® reagent. […] The compounds were sequentially diluted in a 5-fold concentration gradient with DMSO to obtain 8 different concentrations o. These were diluted with BEGM (containing 10% FBS) cell culture medium to obtain the compound working solution (2×), which was added to the cell supernatant at 100 μL per well. The incubation continued for 7 days at 37° C., 5% CO2. The plate was then removed and equilibrated to room temperature (25° C.) along with the CellTiter-Glo® mixing reagent for 10-30 minutes. After centrifugation, 100 μL of the culture medium was carefully aspirated from each well, and 85 μL of CellTiter-Glo® reagent was added. The cells were thoroughly mixed with the CellTiter-Glo® mixing reagent using a microplate shaker for 2 min. and then incubated at room temperature for 10 min. The 96-well plate was subsequently placed on a multifunctional microplate reader to record the Luminescence values (RLU). • The inhibition rate was calculated using the following formula: […]
(§3) Note: ‘Negative’ refers to the group without inhibitors; ‘Blank’ refers to the group without cells.
(§4) The IC50 value was determined by fitting the inhibition rate by GraphPad Prism software.

[4] = test system: NCI-H69 cells; experiment: In vitro cell inhibition assay - NCI-H69 cell proliferation (CellTiter-Glo); type: cell-based; details: Homo sapiens, NCI-H69, H69 small cell lung cancer cell proliferation
Description: 4. In Vitro Cell Inhibition Assay—NCI-H69 Cell Proliferation
The inhibitory effect of the compounds on cell proliferation was assessed by detecting the number of viable cells using the CellTiter-Glo® reagent. NCI-H69 cells in the logarithmic growth phase were collected and inoculated into transparent bottom 96-well plates at a density 1×10^3 cells per well with 100 μL medium, and incubated at 37° C., 5% CO2 overnight. The compounds were sequentially diluted in a 5-fold concentration gradient with DMSO to obtain 8 different concentrations These were then diluted with RPMI-640 (containing 20% FBS) cell culture medium to obtain the compounds working solution (2×), which was added to the cell supernatant at 100 μL per well. The incubation continued for 7 days at 37° C., 5% CO2. The plate was then removed and equilibrated to room temperature (25° C.) along with the CellTiter-Glo® mixing reagent for 10-30 minutes. After centrifugation at 1200 rpm for 5 minutes, 120 μL of the culture medium was carefully aspirated from each well, and 60 μL of CellTiter-Glo® reagent was added. The cells were thoroughly mixed with the CellTiter-Glo® mixing reagent using a microplate shaker for 2 min. and then incubated at room temperature for 10 min. The 96-well plate was subsequently placed on a multifunctional microplate reader to record the Luminescence values (RLU).
The inhibition rate was calculated using the following formula: […]
as §3, §4

IC50 [1] [nM]	IC50 [2] [nM]	IC50 [3] [nM]	IC50 [4] [nM]	SMILES
0.26	72	14.5	–	N#Cc1ccc(-c2nc(N3CCC(N)CC3)n3ccnc3c2-c2ccc(NC(=O)CCCCCCC(=O)NO)c(O)c2)cc1F [Example 57, N^1-(4-(5-(4-aminopiperidin-1-yl)-7-(4-cyano-3-fluorophenyl)imidazo[1,2-c]pyrimidin-8-yl)-2-hydroxyphenyl)-N^8-hydroxyoctanediamine diformate]
–	–	4.97	1400	COc1ccc(-c2cnc(N3CCC(NCc4ccc(C5=C(C(=O)NO)CCC5)cc4)CC3)c(C#N)c2-c2ccc(C#N)c(F)c2)cc1O [Example 163, 2-(4-(((1-(3-Cyano-4-(4-cyano-3-fluorophenyl)-5-(3-hydroxy-4-methoxyphenyl)pyridin-2-yl)piperidin-4-yl)amino)methyl)phenyl)-N-hydroxycyclopent-1-ene-1-carboxamide formate]
0.37	–	0.39	381	COc1ccc(-c2cnc(N3CCC(NCc4ccc(C5CC5C(=O)NO)cc4)CC3)c(C#N)c2-c2ccc(C#N)c(F)c2)cc1O (centres unmarked) [Example 167, 2-(4-((1-(3-Cyano-4-(4-cyano-3-fluorophenyl)-5-(3-hydroxy-4-methoxyphenyl)pyridin-2-yl)piperidin-4-yl)amino)methyl) phenyl)-N-hydroxycyclopropane-1-carboxamide formate]
–	–	2.33	310	COc1ccc(-c2cnc(N3CCC(NCc4ccc(/C=C/CC(=O)NO)cc4)CC3)c(C#N)c2-c2ccc(C#N)c(F)c2)cc1O [Example 169, (E)-4-(4-(((1-(3-Cyano-4-(4-cyano-3-fluorophenyl)-5-(3-hydroxy-4-methoxyphenyl)pyridin-2-yl)piperidin-4-yl)amino)methyl)phenyl)-N-hydroxybut-3-enamide formate]
0.74	–	1.71	1280	COc1ccc(-c2cnc(N3CCC(NCc4ccc(/C=C(\C)C(=O)NO)cc4)CC3)c(C#N)c2-c2ccc(C#N)c(F)c2)cc1O [Example 172, (E)-3-(4-(((1-(3-Cyano-4-(4-cyano-3-fluorophenyl)-5-(3-hydroxy-4-methoxyphenyl)pyridin-2-yl)piperidin-4-yl)amino)methyl)phenyl)-N-hydroxy-2-methylacrylamide formate]
–	–	8.67	4170	COc1ccc(-c2cnc(N3CCC(NCc4ccc(OCC(=O)NO)nc4)CC3)c(C#N)c2-c2ccc(C#N)c(F)c2)cc1O [Example 174, 2-((5-(((1-(3-Cyano-4-(4-cyano-3-fluorophenyl)-5-(3-hydroxy-4-methoxyphenyl)pyridin-2-yl)piperidin-4-yl)amino)methyl)pyridin-2-yl)oxy)-N-hydroxyacetamide formate]
–	–	32.1	160	O=C(/C=C/c1ccc(CNC(=O)c2cc(CN[C@@H]3C[C@H]3c3ccc(F)cc3)nc(-c3ccc(-n4cccn4)cc3)n2)cc1)NO [Example 232, 2-(4-(1H-pyrazol-1-yl)phenyl)-6-((((1R,2S)-2-(4-fluorophenyl)cyclopropyl)amino)methyl)-N-(4-((E)-3-(hydroxyamino)-3-oxoprop-1-en-1-yl)benzyl)pyrimidine-4-carboxamide formate]

The next lines start with the compound.

SMILES	IC50 [1] [nM]	IC50 [2] [nM]	IC50 [3] [nM]	IC50 [4] [nM]
COc1ccc(-c2c(OCCCCCCC(=O)NO)cc(N3CCC(N)CC3)nc2-c2ccc(C#N)c(F)c2)cc1F [Example 3, 7-(6-(4-Aminopiperidin-1-yl)-2-(4-cyano-3-fluorophenyl)-3-(3-fluoro-4-methoxyphenyl)pyridin-4-yl)oxy-N-hydroxyheptanamide hydrochloride]	13.7	29	226	–
CS(=O)(=O)c1ccc(-c2c(OCCCCCCC(=O)NO)cc(N3CCC(N)CC3)nc2-c2ccc(C#N)c(F)c2)cc1 [Example 4, 7-(6-(4-Aminopiperidin-1-yl)-2-(4-cyano-3-fluorophenyl)-3-(4-(methylsulfonyl)phenyl)pyridin-4-yl)oxy)-N-hydroxyheptanamide hydrochloride]	11.9	12	209	–
N#Cc1ccc(-c2nc(N3CCC(N)CC3)cc(OCCCCCCC(=O)NO)c2-c2ccc(N)cc2)cc1F [Example 5, 7-(3-(4-Aminophenyl)-6-(4-aminopiperidin-1-yl)-2-(4-cyano-3-fluorophenyl)pyridin-4-yl)oxy)-N-hydroxyheptanamide hydrochloride]	–	15	128	–
N#Cc1ccc(-c2nc(N3CCC(N)CC3)cc(OCCCCCCC(=O)NO)c2-c2ccc(F)c(F)c2)cc1F [Example 6, 7-(6-(4-Aminopiperidin-1-yl)-2-(4-cyano-3-fluorophenyl)-3-(3,4-difluorophenyl)pyridin-4-yl)oxy)-N-hydroxyheptanamide hydrochloride]	254	134	–	–
COc1ccc(-c2c(OCCCCCCC(=O)NO)cc(N3C4CCC3CC(N)C4)nc2-c2ccc(C#N)c(F)c2)cc1O (centres unmarked) [Example 9, 7-((6-(3-Amino-8-azabicyclo[3.2.1]octan-8-yl)-2-(4-cyano-3-fluorophenyl)-3-(3-hydroxy-4-methoxyphenyl)pyridin-4-yl)oxy)-N-hydroxyheptanamide hydrochloride]	1.82	25.3	915	3100
Cc1cc(-c2c(OCCCCCCC(=O)NO)cc(N3CCC(N)CC3)nc2-c2ccc(C#N)c(F)c2)ccn1 [Example 10, 7-((6-(4-Aminopiperidin-1-yl)-2-(4-cyano-3-fluorophenyl)-2′-methyl-[3,4′-bipyridin]-4-yl)oxy)-N-hydroxyheptanamide hydrochloride]	75.4	39	–	–
COc1ccc(-c2c(OCCCCCCC(=O)NO)cc(N3CCC(N)CC3)nc2-c2ccc(C#N)cc2)cc1O [Example 12, 7-((6-(4-Aminopiperidin-1-yl)-2-(4-cyanophenyl)-3-(3-hydroxy-4-methoxyphenyl)pyridin-4-yl)oxy)-N-hydroxyheptanamide]	0.92	7.31	–	–
Cc1nc(N2CCC(N)CC2)c(C#N)c(-c2ccc(C#N)c(F)c2)c1-c1ccc(OCCCCCCC(=O)NO)c(O)c1 [Example 26, 7-(4-(6-(4-Aminopiperidin-1-yl)-5-cyano-4-(4-cyano-3-fluorophenyl)-2-methylpyridin-3-yl)-2-hydroxyphenoxy)-N-hydroxyheptanamide hydrochloride]	0.12	35	152	–
COc1ccc(-c2c(-c3ccc(C#N)c(F)c3)nc(N3CCC(NCCCCCCC(=O)NO)CC3)n3ccnc23)cc1O [Example 35, 7-((1-(7-(4-Cyano-3-fluorophenyl)-8-(3-hydroxy-4-methoxy-phenyl)imidazo[1,2-c]pyrimidin-5-yl)piperidin-4-yl)amino)-N-hydroxy-heptanamide hydrochloride]	4.63	266	188	–
